Molecules are shown by their SMILES.

The experiment relates to HCV1b replication (bicistronic genotype 1b replicon in Huh 7 cells). In words: HCV replicon assay, 1b_Huh-Luc/Neo-ET cell line, luciferase readout. The class given is cell-based, HCV genotype 1b. The following applies: Hepatitis C virus, Group 1 / Group 2, read-out: EC50, concentration effective to produce a half-maximal inhibition of HCV1b replication. The method, then: Biological activity of the compounds of the invention was determined using an HCV replicon assay. The 1b_Huh-Luc/Neo-ET cell line persistently expressing a bicistronic genotype 1b replicon in Huh 7 cells was obtained from ReBLikon GMBH. This cell line was used to test compound inhibition using luciferase enzyme activity readout as a measurement of compound inhibition of replicon levels.
On Day 1 (the day after plating), each compound is added in triplicate to the cells. Plates incubated for 72 […] prior to running the luciferase assay. Enzyme activity was measured using a Bright-Glo Kit (cat. number E2620) manufactured by Promega Corporation. The following equation was used to generate a percent control value for each compound. % Control=(Average Compound Value/Average Control)*100
The EC50 value was determined using GraphPad Prism and the following equation: Y=Bottom+(Top−Bottom)/(1+10^((Log IC50−X)*HillSlope))
EC50 values of compounds are repeated several times in the replicon assay.
As to `CNC(=O)c1c(-c2ccc(Oc3ccc(F)cc3)cc2)oc2cc3c(cc12)C(C)OC(CS(C)(=O)=O)CN3S(C)(=O)=O` (centres unmarked) [Compound B192], the EC50 was no more than 10 nM. With `CNC(=O)c1c(-c2ccc(Oc3ccc(F)cc3)cc2)oc2cc3c(cc12)[C@@H](C)O[C@H](CS(C)(=O)=O)CN3S(C)(=O)=O` [Compound B216], the EC50 lay within 10 to 100 nM.

Consider `CNC(=O)c1c(-c2ccc(F)cc2)oc2cc3c(cc12)[C@@H](C)O[C@H](CS(C)(=O)=O)CN3S(C)(=O)=O` [Compound B215], for which the EC50 was in the range of 10 to 100 nM. In the case of `CNC(=O)c1c(-c2ccc(F)cc2)oc2cc3c(cc12)[C@H](C)OCCN3S(C)(=O)=O` [Compound B45], the EC50 is no more than 10 nM. On to `CNC(=O)c1c(-c2ccc(F)cc2)oc2cc3c(cc12)C(C)OCCN3S(C)(=O)=O` (centres unmarked) [Compound B22], for which the EC50 was 10 to 100 nM.

Values taken from patent publication US8614207B2, “Inhibitors of hepatitis C virus” (Presidio Pharmaceuticals, Inc., priority 2010, dated 2013).
